Source: patent publication US9260435B2, “Substituted imidazopyrazines as Akt kinase inhibitors” (Bayer Intellectual Property GmbH, priority 2012, dated 2016)

Columns and labels:
[1] = system: p-4E-BP1 at T70; experiment: Cellular p-4E-BP1-T70 assay in KPL-4 cells; format: cell-based; details: Homo sapiens, KPL4; KPL-4 breast tumour cell line, 2 hours treatment; read-out: P4EBP1-T70 median IC50
Experimental: The molecular mechanism of action was investigated in a set of experiments to assess the inhibition of the PI3K-AKT-mTOR pathway in responsive cell lines such as KPL-4 breast tumour cell line (PIK3CA^H1047R, HER2^O/E and hormone independent). The phospho-substrates of PI3K-AKT-mTOR axis were used as the readouts to reflect pathway inhibition. Cells were seeded at 60-80% confluency per well in 96-well cell culture plates. After overnight incubation at 37° C. 5% CO2, cells were treated with compounds and vehicle at 37° C. for 2 hours. Thereafter, cells were lysed in 150 μl lysis buffer and the levels of phospho-AKT at T308 and S473 and p-4E-BP1 at T70 sites were determined with the corresponding AlphaScreen® SureFire® assay kits (Perkin Elmer: 4E-BP1 Assay Kit Cat # TRG4E2S10K; Akt 1/2/3 p-Ser 473 #TGRA4S500 and Akt 1/2/3 p-Thr 308 #TGRA3S500 as well as IgG detection Kit #6760617M) as described in the manuals. All measurements where at least done in duplicates and confirmed by independent repetition. Alternatively pAKT-S473 was measured using the “Akt Duplex” of the MULTI-SPOT® Assay System (Fa. Meso Scale Discovery, Cat# N41100B-1) following manufacturers instructions. Each assay used 20 μg of protein extract and measured total AKT and p-AKT content simultaneously in one well. All measurements where at least done in duplicates and confirmed by independent repetition. Values for P-AKT are expressed as percentage of P-AKT level compared to total-AKT content of the extracts.

[2] = biological target: His-tagged human recombinant kinase full-length Akt1 (Homo sapiens (Human), UniProt P31749); experiment: Akt1 kinase assay (TR-FRET); format: biochemical; details: 10 μM ATP, read-out: Akt1, median IC50
His-tagged human recombinant kinase full-length Akt1, sequence (P31749 whole entry): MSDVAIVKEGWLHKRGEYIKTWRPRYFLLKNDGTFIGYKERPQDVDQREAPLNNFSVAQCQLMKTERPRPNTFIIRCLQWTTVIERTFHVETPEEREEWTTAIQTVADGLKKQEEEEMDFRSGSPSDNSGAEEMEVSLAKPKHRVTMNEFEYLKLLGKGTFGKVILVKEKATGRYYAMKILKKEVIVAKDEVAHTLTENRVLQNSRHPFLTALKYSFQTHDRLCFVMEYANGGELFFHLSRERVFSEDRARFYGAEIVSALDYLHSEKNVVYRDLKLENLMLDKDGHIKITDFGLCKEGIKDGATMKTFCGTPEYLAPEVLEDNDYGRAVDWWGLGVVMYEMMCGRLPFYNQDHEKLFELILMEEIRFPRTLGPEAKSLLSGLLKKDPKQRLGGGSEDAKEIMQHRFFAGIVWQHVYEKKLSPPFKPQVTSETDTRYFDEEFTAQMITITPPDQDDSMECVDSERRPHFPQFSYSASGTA
Description: Biological Assay 1.0: Akt1 Kinase Assay
Akt1 inhibitory activity of compounds of the present invention was quantified employing the Akt1 TR-FRET assay as described in the following paragraphs.
His-tagged human recombinant kinase full-length Akt1 expressed in insect cells was purchased form Invitrogen (part number PV 3599). As substrate for the kinase reaction the biotinylated peptide biotin-Ahx-KKLNRTLSFAEPG (C-terminus in amide form) was used which can be purchased e.g. from the company Biosynthan GmbH (Berlin-Buch, Germany).
For the assay 50 nl of a 100 fold concentrated solution of the test compound in DMSO was pipetted into a black low volume 384 well microtiter plate (Greiner Bio-One, Frickenhausen, Germany), 2 μl of a solution of Akt1 in assay buffer [50 mM TRIS/HCl pH 7.5, 5 mM MgCl2, 1 mM dithiothreitol, 0.02% (v/v) Triton X-100 (Sigma)] were added and the mixture was incubated for 15 min at 22° C. to allow prebinding of the test compounds to the enzyme before the start of the kinase reaction. Then the kinase reaction was started by the addition of 3 μl of a solution of adenosine-tri-phosphate (ATP, 16.7 μM=>final conc. in the 5 μl assay volume is 10 μM) and substrate (1.67 μM=>final conc. in the 5 μl assay volume is 1 μM) in assay buffer and the resulting mixture was incubated for a reaction time of 60 min at 22° C. The concentration of Akt1 in the assay was adjusted depending of the activity of the enzyme lot and was chosen appropriate to have the assay in the linear range, typical enzyme concentrations were in the range of about 0.05 ng/μl (final conc. in the 5 μl assay volume).
The reaction was stopped by the addition of 5 μl of a solution of HTRF detection reagents (200 nM streptavidine-XL665 [Cisbio] and 1.5 nM anti-phosho-Serine antibody [Millipore, cat. #35-001] and 0.75 nM LANCE Eu-W 1024 labeled anti-mouse IgG antibody [Perkin Elmer]) in an aqueous EDTA-solution (100 mM EDTA, 0.1% (w/v) bovine serum albumin in 50 mM HEPES/NaOH pH 7.5).
The resulting mixture was incubated 1 h at 22° C. to allow the binding of the biotinylated phosphorylated peptide to the streptavidine-XL665 and the antibodies. Subsequently the amount of phosphorylated substrate was evaluated by measurement of the resonance energy transfer from the anti-mouse-IgG-Eu-Chelate to the streptavidine-XL665. Therefore, the fluorescence emissions at 620 nm and 665 nm after excitation at 350 nm was measured in a HTRF reader, e.g. a Rubystar (BMG Labtechnologies, Offenburg, Germany) or a Viewlux (Perkin-Elmer). The ratio of the emissions at 665 nm and at […] was taken as the measure for the amount of phosphorylated substrate. The data were normalised (enzyme reaction without inhibitor=0% inhibition, all other assay components but no enzyme=100% inhibition).

[3] = system: KPL-4 breast cancer cell line; experiment: Tumor cell proliferation assay (CellTiter-Glo, 72 h), KPL-4; format: cell-based; details: Homo sapiens, KPL4, 72 h drug exposure; for inhibition at 1.67 µM: read-out: KPL-4 median inhibition at 1.67 μM (%)
Experimental: Biological Assay 4.0: Tumor Cell Proliferation Assays
Compounds were tested in a cell-based assay that measures the capacity of the compounds to inhibit tumour cell proliferation following a 72 h drug exposure. Cell viability is determined using CellTiter-Glow® (CTG, Promega, cat# G7571/2/3). The CellTiter-Glo® Luminescent Cell Viability Assay is a homogeneous method to determine the number of viable cells in culture. Detection is based on using the luciferase reaction to measure the amount of ATP from viable cells. The amount of ATP in cells correlates with cell viability. Within minutes after a loss of membrane integrity, cells lose the ability to synthesize ATP, and endogenous ATPases destroy any remaining ATP; thus the levels of ATP fall precipitously.
Cells were plated at 3000-5000 cells/well (depending on the cell lines) in 90 μL growth medium on MTPs (Corning; #3603, black plate, clear flat bottom). For each cell line assayed, cells were plated onto a separate plate for determination of […] at t=0 hour and t=72 hour time points. Following overnight incubation at 37° C., chemiluminescence values for the t=0 samples were determined after adding 10 μl medium and 100 μl CTG solution according to manufacture protocol. Plates for the t=72 hour time points were treated with compounds diluted into growth medium at ten times final concentration added in 10 μL to the cell culture plate. Cells were then incubated for 72 hours at 37° C. Chemiluminescence values for the t=72 hour samples were determined. […] Experiments were controlled using a reference compound as standard.
Preferred compounds of the present invention show in this assay an inhibition of cell growth of cell lines such as the KPL-4 breast cancer cell line and the MCF-7 breast tumour cell line ([…], hormone dependent) with a median IC50 of <10 μM, more preferably, median IC50≦1 μM.

Row | Compound | IC50 [1] [nM] | IC50 [2] [nM] | IC50 [3] [nM] | inhibition at 1.67 µM [3] [%]
1 | COC(=O)c1cn2c(-c3ccccc3)c(-c3ccc(C4(N)CCC4)cc3)nc2c(OC)n1 [Example 7, Methyl 2-[4-(1-aminocyclobutyl)phenyl]-8-methoxy-3-phenylimidazo[1,2-a]pyrazine-6-carboxylate] | 43 | 64 | 5500 | 22
2 | Cc1cn2c(-c3ccccc3)c(-c3ccc(C4(N)CCC4)cc3)nc2c(C)n1 [Example 2, 1-[4-(6,8-Dimethyl-3-phenylimidazo[1,2-a]pyrazin-2-yl)phenyl]-cyclobutanamine] | 1100 | 61 | 710 | 68
3 | COc1nc(Br)cn2c(-c3ccccc3)c(-c3ccc(C4(N)CCC4)cc3)nc12 [Example 3, 1-[4-(6-Bromo-8-methoxy-3-phenylimidazo[1,2-a]pyrazin-2-yl)phenyl]cyclobutanamine] | 1400 | 22 | 1700 | 57
4 | CCc1cn2c(-c3ccccc3)c(-c3ccc(C4(N)CCC4)cc3)nc2c(OC)n1 [Example 4, 1-[4-(6-Ethyl-8-methoxy-3-phenylimidazo[1,2-a]pyrazin-2-yl)phenyl]cyclobutanamine] | 380 | 110 | 1200 | 64.4

The next compounds have a lower IC50 [1] than those just listed; values first:

Row | IC50 [1] [nM] | IC50 [2] [nM] | IC50 [3] [nM] | Compound | inhibition at 1.67 µM [3] [%]
5 | 18 | 29 | 150 | COc1nc(C(N)=O)cn2c(-c3ccccc3)c(-c3ccc(C4(N)CCC4)cc3)nc12 [Example 8, 2-[4-(1-Aminocyclobutyl)phenyl]-8-methoxy-3-phenylimidazo[1,2-a]pyrazine-6-carboxamide] | 83.6
6 | 18 | 110 | 290 | NC(=O)c1cn2c(-c3ccccc3)c(-c3ccc(C4(N)CCC4)cc3)nc2cn1 [Example 6, 2-[4-(1-Aminocyclobutyl)phenyl]-3-phenylimidazo[1,2-a]pyrazine-6-carboxamide] | 79.5
